From ChEMBL document CHEMBL4616706 (ACS Med Chem Lett, 2020)
Values after ≈ are worked out from the molar mass of the structure shown.

Tested on: not listed separately
Assay: Clearance in human hepatocytes assessed per million cells
Type: ADME, cell-based, Hepatocyte
Details: read-out: CLH

SMILES | hepatocyte CLint [µL/min/1e6 cells]
Cc1noc(N2C[C@H]3CC[C@@H](C2)[C@@H]3Nc2nc3n(n2)CCCN3c2ccc(F)c(F)c2)n1 | 1.5
COc1cc(N2C[C@H]3CC[C@@H](C2)[C@@H]3Nc2nc3n(n2)CCCN3c2ccc(F)c(F)c2)ccn1 | 3.8
Cc1cc(N2C[C@H]3CC[C@@H](C2)[C@@H]3Nc2nc3n(n2)CCCN3c2ccc(F)c(F)c2)cnn1 | 2.3
Cc1cc(N2C[C@H]3CC[C@@H](C2)[C@@H]3Nc2nc3n(n2)CCCN3c2ccc(F)c(F)c2)ncn1 | 2

Tested on: not listed separately
Assay: Solubility of compound by LYSA assay
Type: physicochemical
Details: not given

SMILES | solubility [µg/mL]
Cc1noc(N2C[C@H]3CC[C@@H](C2)[C@@H]3Nc2nc3n(n2)CCCN3c2ccc(F)c(F)c2)n1 | 158 (≈ 357 µM)
COc1cc(N2C[C@H]3CC[C@@H](C2)[C@@H]3Nc2nc3n(n2)CCCN3c2ccc(F)c(F)c2)ccn1 | 11 (≈ 23.5 µM)
Cc1cc(N2C[C@H]3CC[C@@H](C2)[C@@H]3Nc2nc3n(n2)CCCN3c2ccc(F)c(F)c2)cnn1 | 131 (≈ 289 µM)
Cc1cc(N2C[C@H]3CC[C@@H](C2)[C@@H]3Nc2nc3n(n2)CCCN3c2ccc(F)c(F)c2)ncn1 | 161 (≈ 356 µM)

Target: P-gp (ABCB1) (Homo sapiens, UniProt P08183)
Assay: Substrate activity at human P-gp assessed as efflux ratio
Type: ADME
Details: not told

P-gp (ABCB1), sequence (P08183 whole entry): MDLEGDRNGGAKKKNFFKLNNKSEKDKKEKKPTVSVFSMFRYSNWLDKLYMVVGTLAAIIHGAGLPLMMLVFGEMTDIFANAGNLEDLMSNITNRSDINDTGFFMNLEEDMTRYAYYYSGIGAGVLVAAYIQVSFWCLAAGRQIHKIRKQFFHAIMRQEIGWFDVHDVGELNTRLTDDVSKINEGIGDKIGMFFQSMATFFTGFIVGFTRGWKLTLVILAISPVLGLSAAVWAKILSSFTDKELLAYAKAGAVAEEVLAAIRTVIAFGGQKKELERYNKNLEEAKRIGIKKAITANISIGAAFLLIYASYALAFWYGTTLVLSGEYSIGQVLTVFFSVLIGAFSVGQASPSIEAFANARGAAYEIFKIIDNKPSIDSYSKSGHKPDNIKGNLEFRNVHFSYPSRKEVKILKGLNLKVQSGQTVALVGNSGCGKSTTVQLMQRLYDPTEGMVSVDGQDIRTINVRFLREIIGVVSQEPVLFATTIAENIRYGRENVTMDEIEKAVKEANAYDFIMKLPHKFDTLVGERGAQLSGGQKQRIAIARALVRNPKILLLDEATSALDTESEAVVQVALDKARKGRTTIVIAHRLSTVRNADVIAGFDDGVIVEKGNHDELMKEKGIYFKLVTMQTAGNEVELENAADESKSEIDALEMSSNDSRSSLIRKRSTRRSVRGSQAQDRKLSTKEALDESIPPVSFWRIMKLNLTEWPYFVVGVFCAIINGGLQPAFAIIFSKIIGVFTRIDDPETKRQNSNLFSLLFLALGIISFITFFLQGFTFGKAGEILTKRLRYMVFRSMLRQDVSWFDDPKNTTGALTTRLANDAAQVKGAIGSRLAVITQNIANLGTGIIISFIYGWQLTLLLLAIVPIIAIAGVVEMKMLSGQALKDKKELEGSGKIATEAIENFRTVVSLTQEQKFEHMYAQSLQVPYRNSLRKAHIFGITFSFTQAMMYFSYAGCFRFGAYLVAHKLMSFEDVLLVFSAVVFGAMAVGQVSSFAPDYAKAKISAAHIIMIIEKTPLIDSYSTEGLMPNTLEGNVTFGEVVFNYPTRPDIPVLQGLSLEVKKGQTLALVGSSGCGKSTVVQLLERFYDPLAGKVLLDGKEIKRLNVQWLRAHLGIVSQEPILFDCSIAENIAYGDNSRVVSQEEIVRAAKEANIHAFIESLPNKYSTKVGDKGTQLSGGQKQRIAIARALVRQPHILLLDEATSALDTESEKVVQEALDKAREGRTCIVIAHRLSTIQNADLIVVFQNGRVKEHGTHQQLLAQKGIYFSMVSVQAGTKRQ

SMILES | efflux ratio
COc1cc(N2C[C@H]3CC[C@@H](C2)[C@@H]3Nc2nc3n(n2)CCCN3c2ccc(F)c(F)c2)ccn1 | 1
Cc1cc(N2C[C@H]3CC[C@@H](C2)[C@@H]3Nc2nc3n(n2)CCCN3c2ccc(F)c(F)c2)cnn1 | 3.3
Cc1cc(N2C[C@H]3CC[C@@H](C2)[C@@H]3Nc2nc3n(n2)CCCN3c2ccc(F)c(F)c2)ncn1 | 3.2

Target: hERG (KCNH2) (Homo sapiens, UniProt Q12809)
Assay: (§1) Inhibition of human ERG
Details: human

hERG (KCNH2), sequence (Q12809 whole entry): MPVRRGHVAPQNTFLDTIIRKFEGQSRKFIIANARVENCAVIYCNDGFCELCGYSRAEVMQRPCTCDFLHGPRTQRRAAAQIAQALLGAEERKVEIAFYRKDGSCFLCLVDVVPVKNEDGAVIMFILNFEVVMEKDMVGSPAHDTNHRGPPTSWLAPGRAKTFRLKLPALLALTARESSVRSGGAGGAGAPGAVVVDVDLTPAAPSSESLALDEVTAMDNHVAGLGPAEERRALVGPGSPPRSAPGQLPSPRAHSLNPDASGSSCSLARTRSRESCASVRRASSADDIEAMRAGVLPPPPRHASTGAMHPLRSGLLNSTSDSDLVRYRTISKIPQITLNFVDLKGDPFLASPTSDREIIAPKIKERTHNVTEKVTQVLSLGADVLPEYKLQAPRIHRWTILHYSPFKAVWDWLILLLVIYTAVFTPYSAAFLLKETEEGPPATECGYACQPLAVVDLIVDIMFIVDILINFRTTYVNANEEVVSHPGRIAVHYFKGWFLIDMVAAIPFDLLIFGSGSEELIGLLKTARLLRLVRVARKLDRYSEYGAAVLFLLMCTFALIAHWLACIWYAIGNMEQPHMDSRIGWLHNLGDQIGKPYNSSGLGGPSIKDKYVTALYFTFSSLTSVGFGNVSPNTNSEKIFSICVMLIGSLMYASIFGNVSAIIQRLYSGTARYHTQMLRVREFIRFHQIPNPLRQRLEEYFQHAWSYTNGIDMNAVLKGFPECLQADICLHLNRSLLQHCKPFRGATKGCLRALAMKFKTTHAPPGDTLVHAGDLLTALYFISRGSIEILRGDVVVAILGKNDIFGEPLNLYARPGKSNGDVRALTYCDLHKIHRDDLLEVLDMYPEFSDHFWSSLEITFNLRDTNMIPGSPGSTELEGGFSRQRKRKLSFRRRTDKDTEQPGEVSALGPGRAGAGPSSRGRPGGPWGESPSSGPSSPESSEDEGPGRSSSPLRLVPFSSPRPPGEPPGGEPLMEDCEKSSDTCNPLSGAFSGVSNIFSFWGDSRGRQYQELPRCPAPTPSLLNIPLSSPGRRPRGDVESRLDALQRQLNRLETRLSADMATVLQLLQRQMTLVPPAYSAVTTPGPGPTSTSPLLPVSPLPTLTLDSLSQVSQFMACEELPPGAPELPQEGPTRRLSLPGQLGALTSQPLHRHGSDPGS

SMILES | IC20 [nM]
COc1cc(N2C[C@H]3CC[C@@H](C2)[C@@H]3Nc2nc3n(n2)CCCN3c2ccc(F)c(F)c2)ccn1 | > 1000

Target: Voltage-gated inwardly rectifying potassium channel KCNH2 (Homo sapiens, UniProt Q12809)
Assay: as §1
Details: not given

Voltage-gated inwardly rectifying potassium channel KCNH2, sequence (Q12809 whole entry): as above

SMILES | IC50 [nM]
COc1cc(N2C[C@H]3CC[C@@H](C2)[C@@H]3Nc2nc3n(n2)CCCN3c2ccc(F)c(F)c2)ccn1 | > 2000

Target: Gamma-secretase
Assay: Modulation of gamma secretase in human H4 cells overexpressing human APP695 harboring K595N/M596L Swedish double mutant assessed as reduction in total amyloid beta (1 to 42 residues) production measured after 24 hrs by AlphaLISA assay
Type: cell-based
Details: not given

SMILES | IC50 [nM]
Cc1noc(N2C[C@H]3CC[C@@H](C2)[C@@H]3Nc2nc3n(n2)CCCN3c2ccc(F)c(F)c2)n1 | 32
COc1cc(N2C[C@H]3CC[C@@H](C2)[C@@H]3Nc2nc3n(n2)CCCN3c2ccc(F)c(F)c2)ccn1 | 16
Cc1cc(N2C[C@H]3CC[C@@H](C2)[C@@H]3Nc2nc3n(n2)CCCN3c2ccc(F)c(F)c2)cnn1 | 23
Cc1cc(N2C[C@H]3CC[C@@H](C2)[C@@H]3Nc2nc3n(n2)CCCN3c2ccc(F)c(F)c2)ncn1 | 25
